We go through 4 molecules from BindingDB's records for doi:10.1021/jm00039a015 (Abbott Laboratories, 1994).

Each structure is given as a SMILES string.

The assay addresses Platelet-activating factor receptor (Oryctolagus cuniculus). Kind of assay: Antagonist activity against platelet activating factor (PAF) receptor in rabbit platelet membranes using [3H]C18-PAF as radioligand.

For the molecule `O=C(c1c[nH]c2cc(OCc3ccc(F)cc3)ccc12)[C@@H]1CSC(c2cccnc2)N1` (stereo partly drawn) [[6-(4-Fluoro-benzyloxy)-1H-indol-3-yl]-((R)-2-pyridin-3-yl-thiazolidin-4-yl)-methanone], affinity was put at a Ki of 1.6 nM. As to `O=C(c1c[nH]c2cc(Oc3ccc(F)cc3)ccc12)[C@@H]1CSC(c2cccnc2)N1` (stereo partly drawn) [[6-(4-Fluoro-phenoxy)-1H-indol-3-yl]-((R)-2-pyridin-3-yl-thiazolidin-4-yl)-methanone], the Ki stood at 1.9 nM.

As for `O=C(c1c[nH]c2cc(OCc3cccnc3)ccc12)[C@@H]1CSC(c2cccnc2)N1` (stereo partly drawn) [[6-(Pyridin-3-ylmethoxy)-1H-indol-3-yl]-((R)-2-pyridin-3-yl-thiazolidin-4-yl)-methanone], the Ki turned out to be 37 nM. Against the preceding molecule, the Ki is about 19-fold higher. For the molecule `O=C(c1cn(C(=O)N2CCOCC2)c2cc(OCc3ccccc3)ccc12)[C@@H]1CSC(c2cccnc2)N1` (stereo partly drawn) [[6-Benzyloxy-3-((R)-2-pyridin-3-yl-thiazolidine-4-carbonyl)-indol-1-yl]-morpholin-4-yl-methanone], the affinity corresponds to a Ki of 10 nM. This Ki lies about 3.7-fold lower than the previous one.

For orientation: Ki means a measure of affinity in units of concentration, obtained from inhibition or displacement. Higher therefore signals lower affinity.
